Experimental data: patent publication US20070020244A1, “Fiber constructs and process of fiber fabrication” (The Johns Hopkins University, priority 2005, published 2007)

Test system: PC12 cells
Assay: PC12 bioassay of NGF released from fiber
Assay type: cell-based
Details: for time period of significant cell differentiation: supernatant with released NGF
Description: Nerve growth factor (NGF) was used as the model protein to investigate if incorporation of protein into the fibre compromises its bioactivity. The bioactivity of the released NGF was confirmed by its ability to differentiate PC12 cells, and in a dose-dependent manner. (FIG. 2C) At the increasing loading concentrations of NGF indicated, significant cell differentiation could be observed for time periods of up to 3 d, 5 d and 7 d, respectively. In all cases, the minimum concentration of NGF required to induce neurite outgrowth appeared to be in the region of 0.5 ng/mL, which agrees well with the literature. See, Physiological Reviews 60, 1284-1335 (1980).
Encapsulation of recombinant human β-NGF (MW 13,200, R&D Systems) was performed in the same way as described for BSA. Ring-spooled fibers were incubated in RPMI media over a period of 1 week, during which supernatants were collected for the PC12 bioassay and NGF ELISA (DuoSet ELISA Development System for human β-NGF, R&D Systems).

## NGF: Recombinant human β-NGF (MW 13,200, R&D Systems), model protein encapsulated in and released from the fiber
NGF released from fiber, PC12 cells
  minimum concentration of NGF required to induce neurite outgrowth: ~0.5 ng/mL
Loading concentration 66 ng/mL
  time period of significant cell differentiation: up to 3 d
Loading concentration 86 ng/mL
  time period of significant cell differentiation: ≤ 5 days
Loading concentration 112 ng/mL
  time period of significant cell differentiation: ≤ 7 days
